The text below walks through data of ChEMBL document CHEMBL1157662, “Antimalarial and antileishmanial activities of histone deacetylase inhibitors with triazole-linked cap group” (Bioorg Med Chem, 2010).

The subject of series [1] is Plasmodium falciparum. Kind of series: Ratio of suberoylanilide hydroxamic acid IC50 to compound IC50 for chloroquine-resistant Plasmodium falciparum W2 infected in […]. It is filed as functional.
A short description of series [2]: Selectivity index, ratio of IC50 for african green monkey (Cercopithecus aethiops) Vero cells to IC50 for chloroquine-resistant Plasmodium falciparum W2.
Series [3] relates to Leishmania donovani. The series can be described thus: Ratio of suberoylanilide hydroxamic acid IC50 to compound IC50 for Leishmania donovani promastigotes. It is filed as functional.
The nature of series [4]: Selectivity index, ratio of IC50 for african green monkey (Cercopithecus aethiops) Vero cells to IC50 for chloroquine-sensitive Plasmodium falciparum D6.
Series [5] has as its system Plasmodium falciparum. Kind of series: microbe, parasite or virus in culture. As to conditions: D6, Vero, 72 h.
Description: (§1) Antimalarial activity against chloroquine-sensitive Plasmodium falciparum D6 infected in African green monkey (Cercopithecus aethiops) Vero cells assessed as parasite LDH activity after 72 hrs by Malstat reagent method
For series [6], the system named is Plasmodium falciparum. The series can be described thus: microbe, parasite or virus in culture. In kind it is functional, organism-based, W2, Vero.
Description: Antimalarial activity against chloroquine-resistant Plasmodium falciparum W2 infected in African green monkey (Cercopithecus aethiops) Vero cells assessed as parasite LDH activity after 72 hrs by Malstat reagent method
Series [7] deals with Leishmania donovani. Kind of series: Antileishmanial activity against Leishmania donovani promastigotes after 72 hrs by alamar blue assay. It is filed as functional, organism-based.
The test system of series [8] is Plasmodium falciparum. The series can be described thus: Ratio of suberoylanilide hydroxamic acid IC50 to compound IC50 for chloroquine-sensitive Plasmodium falciparum D6 infected in […]. It is filed as functional.
Series [9] concerns Leishmania donovani. Kind of series: Ratio of suberoylanilide hydroxamic acid IC50 to compound IC50 for Leishmania donovani promastigotes.
The test system of a further series is Vero. Kind of series: Cytotoxicity against african green monkey Vero cells after 1 to 2 days by neutral red assay. It is filed as ADME, cell-based, Chlorocebus sabaeus.
Series [10] concerns Plasmodium falciparum. As to conditions: vero.
Description: as §1
For series [11], the system named is Leishmania donovani.
Setting [12] is: Plasmodium falciparum, W2, Vero, 72 h, read-out: IC50.
Setting [13] is: Leishmania donovani, 72 h, read-out: IC50.
The mark [14] stands for this setting: Chlorocebus sabaeus, Vero, read-out: IC50.

SMILES strings stand for the structures. ≈ marks a conversion by molar mass, not a printed value. Calls of active or inactive are those of the source. No cut-off for these calls is given here. Some results are limits rather than exact numbers.

A word on the IC50: it is the concentration that gives 50% inhibition. For orientation: IC90 means the point of the concentration-response curve where the effect stands at 90%. `O=C(CCCCCn1cc(-c2ccc3ccccc3n2)nn1)NO`: the “Ratio IC50” value in the series on Plasmodium falciparum [1] and with Plasmodium falciparum [8] was 5 throughout. For the same compound, the selectivity ratio in [2] stood at 70.6; in series [4] it was 72.7. For the same compound, in the series with Leishmania donovani [3], the Ratio was 2. Further, the IC50 with Plasmodium falciparum [5] turned out to be 0.033 mg/L (≈ 0.101 µM); with Plasmodium falciparum [6] (setting [12]) it was 0.034 mg/L (≈ 0.104 µM); with Leishmania donovani [7] (setting [13]), 9.5 mg/L (≈ 29.2 µM); with Vero (setting [14]), 2.4 mg/L (≈ 7.38 µM). In the series on Leishmania donovani [7] (Leishmania donovani, 72 h), this compound had an IC90 of 39 mg/L (≈ 120 µM). In the series on Leishmania donovani [9], the IC50 ratio was 2.
On to `COc1ccc2cc(-c3cn(CCCCCC(=O)NO)nn3)ccc2c1`, for which the “Ratio IC50” value in the series with Plasmodium falciparum [1] and in the series on Plasmodium falciparum [8] was 5 throughout. Besides, the selectivity ratio in series [2] was over 91.9; in series [4], over 81.4. Besides, the IC50 with Plasmodium falciparum [5] was 0.035 mg/L (≈ 0.0988 µM); in the series on Plasmodium falciparum [6] (setting [12]), 0.031 mg/L (≈ 0.0875 µM); in the series on Leishmania donovani [7] (setting [13]) it was 18 mg/L (≈ 50.8 µM); in the series with Vero (setting [14]), 2.85 mg/L (≈ 8.04 µM). The IC90 in the series with Leishmania donovani [7] (Leishmania donovani, 72 h) is over 40 mg/L.
In the case of `COc1ccc2cc(-c3cn(CCCCCCC(=O)NO)nn3)ccc2c1`, the “Ratio IC50” value with Plasmodium falciparum [1] and with Plasmodium falciparum [8] was 5 throughout. Moreover, the results for the selectivity ratio in series [2] and in series [4] were 50 and 55.8, respectively. Also, the IC50 in the series with Plasmodium falciparum [5] worked out at 0.0475 mg/L (≈ 0.129 µM); in the series with Plasmodium falciparum [6] (setting [12]) it was 0.053 mg/L (≈ 0.144 µM); in the series with Leishmania donovani [7] (setting [13]), 18.5 mg/L (≈ 50.2 µM); in the series on Vero (setting [14]), 2.65 mg/L (≈ 7.19 µM). The compound further gave an IC90 in the series with Leishmania donovani [7] (Leishmania donovani, 72 h) of over 40 mg/L.
Consider `COc1cccc(-c2cn(CCCCCC(=O)NO)nn2)c1`, for which the IC50 entry in the series with Plasmodium falciparum [10] was “Not Active”; in the series on Plasmodium falciparum [6] (vero), “Not Active”; in the series with Leishmania donovani [7], “Not Active”; in the series on Vero (vero) it was “Non-toxic”. In addition, the IC90 entry with Leishmania donovani [11] was “inactive”.
